Reference: PMC10199925, “Cyclodextrin carboxylate improves the stability and activity of nisin in a wider range of application conditions” (NPJ Science of Food, 2023)
Where no end group is shown, it is not given here. [ ]: non-standard residue; d: D form. Dhb = C/C=C(\N)C(=O)O; Dha = C=C(N)C(=O)O

Experiments:
S. aureus [1] = assay: Live/dead bacterial double stain fluorescence intensity; format: cell-based; details: complexes at their MIC levels, result in words
Method: (§1) After confirming the antibacterial activity of nisin-SACD complexes, the MIC of nisin-SACD complexes was further measured by the broth microdilution method as reported by Li et al.. […] The initial solutions were then serially diluted until the concentration of them reached 3.125 µg/mL, 0.3125 mg/mL, 0.3125 mg/mL, and 0.3125 mg/mL, respectively. 100 µL of the samples at different concentrations were then cultured with 100 µL S. aureus dilutions containing 10^6 CFU bacteria in 96-well plates. The plates were incubated at 37 °C for 24 h. […] S aureus treated with nisin-SACD and HSS-nisin-SACD at MIC were further stained using a live/dead bacterial double stain kit (LMAI Bio, China), and the number of the total bacteria and dead bacteria could be represented by the fluorescence intensity value directly. Note there is no statistical relationship between the fluorescence intensity of the total bacteria and the dead bacteria, since they are stained by two different fluorescent dyes.

S. aureus (ATCC 6538) = assay: Antibacterial activity by optical density (OD600) of bacterial culture; format: cell-based
Method: The antimicrobial activities of the samples were determined using S. aureus (ATCC 6538) as a representative Gram-positive bacterium. The optical density (OD) was used to assess the antibacterial activity of the nisin and the nisin-SACD complexes[41],[42]. The bacteria were precultured on Luria-Bertani media at 37 °C for 24 h to obtain seed cultures. These seed cultures were then diluted to 10^6 CFU using Luria-Bertani media. […] A bacteria culture containing no sample was used as a blank control group. After incubating at 37 °C for 24 h, the growth of bacteria in the culture media was determined by recording the OD at 600 nm (OD600) using an UV-visible spectrophotometer (UV–1800PC, Mapada, China).

S. aureus [2] = assay: MIC by broth microdilution; format: cell-based; details: nisin 3.125-400 µg/mL, SACD 0.3125-40 mg/mL, 37 °C, 24 h, result in words
Method: as §1

[3] = Thermogravimetric analysis (TG/dTG); format: physicochemical; details: dry powder, N2 50 mL/min, 10 °C/min, 30 to 600 °C
Method: The thermal behavior of the nisin-SACD complexes was evaluated using a thermogravimetric (TG) analysis system (TGA2, Mettler–Toledo, Schwerzenbach, Switzerland) under N2 (50 mL/min) at a 10 °C/min heating rate over a temperature range from 30 to 600 °C.

S. aureus [4] = details: pure SACD at a relatively high dose; result in words; cited from earlier work
Description: S. aureus is commonly used as model Gram-positive bacteria to predict the antibacterial effects of the bacteriostatic agent. Meanwhile, it is a significant cause of foodborne illness leading to gastroenteritis, diarrhea, and vomiting. Foods susceptible to S. aureus intoxication including meat, egg, and dairy products. It is known that nisin can deactivate bacteria by adsorbing to the cell membrane, disrupting the cell membrane, and promoting the loss of essential int ...

Row | Substance | total and dead bacteria (fluorescence intensity) in comparison to the untreated group (S. aureus [1]) | OD600 value of the bacterial suspension after treatment (S. aureus (ATCC 6538); 1 mg nisin or 50 mg nisin-SACD (containing 1 mg nisin) in 10 mL culture (10^6 CFU), LB media, 37 °C, 24 h, blank OD600 1.23, n = 3) | fold decrease of OD600 versus untreated culture (S. aureus (ATCC 6538); as for OD600, relative to blank 1.23) | antibacterial effects at the setting concentration range (MIC test) (S. aureus [2]) | maximum decomposition peak temperature (dTG) [3] | weight loss at the end of heating (TG) [3] | antibacterial activity against S. aureus (S. aureus [4])
1 | Nisin (I[Dhb]SI[Dha]LCTPGCKTGALMGCNMKTATCHCSIHV[Dha]K; thioether (positions not given here); not fully specified (residues 3, 8, 13, 23, 25, bridges); UniProt P13068 24-57, looked up) [natural bacteriocin, small peptide of 34 amino acid residues produced by Lactococcus lactis; purchased from Aladdin] | Certain degree of inhibition on bacteria proliferation | 0.46 | 2.7 fold | no significant antibacterial effects | 333 °C | < 7% | –
2 | succinic acid-β-cyclodextrin [SACD] | Certain degree of inhibition on bacteria proliferation | – | – | no significant antibacterial effects | – | – | did show antibacterial activity
